Laboratory results reported in patent US10179914B2, “CDC25A inhibitor for the treatment of drug resistant cancer or for the prevention of tumor relapse” (INSERM (INSTITUT NATIONAL DE LA SANTÉ ET DE LA RECHERCHE …, priority 2014, dated 2019).

Legend:
[1] = system: MV4-11 cells (FLT3-ITD positive); assay: Cell proliferation, trypan blue counting, MV4-11; type: cell-based, human; details: 200 nM
Procedure: (§1) (a) MV4-11 and MOLM-14 FLT3-ITD positive cells, KG1, HL-60 and TF-1 FLT3 wild type cells, and K562 FLT3 negative cells were cultured in the presence of the CDC25 inhibitor IRC-083864 (200 nM). Cells were harvested each day and counted after trypan blue coloration. The graph represents three independent experiments.
(b) MOLM-14 and MV4-11 cells were transfected with CDC25A siRNA for 24 hours, and cells were counted after trypan blue coloration (upper panel). The efficiency of CDC25A siRNA was estimated by western blot analysis (lower panel). ns: non specific.
Cell lines and reagents. Human acute myeloid leukemia cell lines MOLM-14 (Matsuo Y et al, Leukemia 1997) (kindly provided by Martin Carroll, University of Pennsylvania, Philadelphia, Pa., USA) MV4-11, K562 (ACC-102 and ACC-10, DSMZ, Braunschweig, Germany) and FLT3-ITD-expressing murine BaF3 cells were cultured in RPMI 1640 medium (Gibco, Life Technologies, Carlsbad, Calif., USA) supplemented with 10% fetal bovine serum (Sigma, Saint Louis, Calif., USA). TF-1 (ATCC-CRL2003) cells were cultured in RPMI 1640 medium with 10% fetal bovine serum and GM-CSF 2 ng/ml. […]
siRNA. […] Twenty-four or forty-eight hours after transfection, cells were counted (trypan blue staining), and western blotting was performed.

[2] = system: K562 cells (FLT3 negative); assay: Cell proliferation, trypan blue counting, K562; type: cell-based, human; details: 200 nM
Procedure: as §1
Cell lines and reagents. Human acute myeloid leukemia cell lines MOLM-14 (Matsuo Y et al, Leukemia 1997) (kindly provided by Martin Carroll, University of Pennsylvania, Philadelphia, Pa., USA) MV4-11, K562 (ACC-102 and ACC-10, DSMZ, Braunschweig, Germany) and FLT3-ITD-expressing murine BaF3 cells were cultured in RPMI 1640 medium (Gibco, Life Technologies, Carlsbad, Calif., USA) supplemented with 10% fetal bovine serum (Sigma, Saint Louis, Calif., USA). TF-1 (ATCC-CRL2003) cells were cultured in RPMI 1640 medium with 10% fetal bovine serum and GM-CSF 2 ng/ml. Concerning MOLM-14 cell line, the presence of a monoallelic 21 bp FLT3-ITD mutation and of an MLL-containing ins(11; 9)(q23;p22p23) were verified (Hematology laboratory of Toulouse University Hospital, Prof E. Delabesse and Dr I. Luquet). KG1 and HL-60 (ACC-14 and ACC-3, DSMZ) cell lines were grown in Iscove's Modified Dulbecco's Medium (IMDM, Gibco) plus 20% FBS. All cells were grown in the presence of 100 units/ml of penicillin and streptomycin (Invitrogen) at 37° C. and 5% CO2.

Cdc25A = Cdc25A (Homo sapiens, UniProt P30304); details: cited from earlier work
[3] = system: C/EBPα Ser21 phosphorylation, c-myc, C/EBPε; assay: Western blot of differentiation markers in MOLM-14; type: cell-based, human; details: MOLM-14, 100 nM
Procedure: (a-b) MOLM-14 and MV4-11 cells were treated for different times with IRC-083864 (100 nM and 200 nM) and the expression of the cell surface markers CD11b, CD14 and CD15 were followed by flow cytometry analysis. (c) MOLM-14 and MV4-11 cells were treated for different times with IRC-083864 (100 nM) and morphological changes were estimated by microscopy after cells were cytospun and stained at days 8 and 13. Original magnification ×100. (d) MOLM-14 cells were treated for different times with IRC-083864 (100 nM) and c-myc expression as well as C/EBPα phosphorylation on serine 21 were analyzed by western blot at day 1, and C/EBPε expression after 6 days of treatment. (e) MOLM-14 cells were transfected with CDC25A shRNA The expression of the cell surface markers CD11b, CD14 and CD15 were followed by flow cytometry analysis at day 3 and 6 (upper panel), and their morphology was analyzed by microscopy after 6 days (lower panel). Original magnification ×100. (f) MOLM-14 cells were transfected with CDC25A siRNA, and their morphology was analyzed by microscopy after 3 days (upper panel). Original magnification ×100. The efficiency of CDC25A siRNA was assessed by western blot analysis (lower panel).
Western blot. 2×10^6 cells were usually lysed in 100 μL of NuPAGE® LDS Sample Buffer (Novex, Life Technologies, Carlsbad, Calif., USA), sonicated for 15 seconds, and boiled for 3 minutes. Proteins were then resolved on NuPAGE® 4-12% Bis-Tris Gels and transferred to nitrocellulose membrane. Saturation of the membrane was done for 1 hour in Tris Buffer Saline with Tween 0.1% (TBS-T) containing 5% non-fat milk or 5% bovine serum albumin. Membranes were blotted with proper antibodies overnight at 4° C., washed thrice with TBS-T, and incubated for 30 minutes with HRP-conjugated secondary antibody (Promega, Madison, Wis., USA). […]

Sequence of Cdc25A (P30304 whole entry): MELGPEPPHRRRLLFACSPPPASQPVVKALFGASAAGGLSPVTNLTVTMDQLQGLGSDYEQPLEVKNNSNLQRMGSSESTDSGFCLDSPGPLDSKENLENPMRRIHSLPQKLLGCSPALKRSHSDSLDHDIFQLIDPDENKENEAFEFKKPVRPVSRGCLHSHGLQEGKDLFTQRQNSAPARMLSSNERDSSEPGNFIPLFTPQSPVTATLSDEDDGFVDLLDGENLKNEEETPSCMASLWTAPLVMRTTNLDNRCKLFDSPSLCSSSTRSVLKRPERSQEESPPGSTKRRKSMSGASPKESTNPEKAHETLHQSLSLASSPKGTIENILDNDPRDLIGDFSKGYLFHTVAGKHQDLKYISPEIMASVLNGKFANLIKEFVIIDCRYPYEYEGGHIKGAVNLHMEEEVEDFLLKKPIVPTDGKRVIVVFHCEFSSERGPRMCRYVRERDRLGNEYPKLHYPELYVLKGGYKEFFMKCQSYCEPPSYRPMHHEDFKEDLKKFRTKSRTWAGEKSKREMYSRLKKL

Cc1nc2c(s1)C(=O)C=C(NCCCN(C)CCCNC1=CC(=O)c3nc(-c4cc(F)ccc4F)oc3C1=O)C2=O [IRC-083864]
proliferation of MV4-11 [1]: robust inhibition
proliferation of K562 [2]: did not decrease
IC50 Cdc25 enzyme type A (Cdc25A): nanomolar range
C/EBPα phosphorylation on serine 21 ([3]; day 1): dephosphorylation
c-myc expression ([3]; day 1): down-regulation
C/EBPε expression ([3]; day 6): up-regulation
